Reference: PubChem BioAssay (NCI)
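Test compounds were applied to cells in 96-well plates for 48 hours at 5 doses. Abbreviation: GI50, concentration required for 50% inhibition of growth. At the TGI there is no net growth.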 *1 amine or outer side, *2 acyl side, *3 side chain or, on linkers, in order; H or OH if unused. Where a SMILES comes first, the peptide text is derived from it. Bridges are numbered along the chain shown (N, C = ends). Roman numbers before positions name the chains, in order. X23 = CCCCCCCCCCCCCCC(=O)NC(CCCCN[*:2])C(=O)CN1CCCC1C(=O)[*:1]

How the values were obtained:
Assay in all cases: NCI tumour cell line growth inhibition, 48 h
A498 renal = tested on: A498 renal
A549 NSCLC = tested on: A549 NSCLC
BT-549 breast = tested on: BT-549 breast
CAKI-1 renal = tested on: CAKI-1 renal
CCRF-CEM leukemia = tested on: CCRF-CEM leukemia
COLO 205 colon = tested on: COLO 205 colon
DU-145 prostate = tested on: DU-145 prostate
EKVX NSCLC = tested on: EKVX NSCLC
HCC-2998 colon = tested on: HCC-2998 colon
HCT-116 colon = tested on: HCT-116 colon
HL-60(TB) leukemia = tested on: HL-60(TB) leukemia
HOP-62 NSCLC = tested on: HOP-62 NSCLC
HOP-92 NSCLC = tested on: HOP-92 NSCLC
HS 578T breast = tested on: HS 578T breast
HT29 colon = tested on: HT29 colon
IGROV1 ovarian = tested on: IGROV1 ovarian
K-562 leukemia = tested on: K-562 leukemia
KM12 colon = tested on: KM12 colon
M14 melanoma = tested on: M14 melanoma
MCF7 breast = tested on: MCF7 breast
MDA-MB-231 breast = tested on: MDA-MB-231 breast
MDA-MB-435 = tested on: MDA-MB-435
MOLT-4 leukemia = tested on: MOLT-4 leukemia
NCI-H226 lung = tested on: NCI-H226 lung
NCI-H23 lung = tested on: NCI-H23 lung
NCI-H460 lung = tested on: NCI-H460 lung
NCI-H522 lung = tested on: NCI-H522 lung
NCI/ADR-RES ovarian = tested on: NCI/ADR-RES ovarian
OVCAR-3 ovarian = tested on: OVCAR-3 ovarian
OVCAR-4 ovarian = tested on: OVCAR-4 ovarian
OVCAR-5 ovarian = tested on: OVCAR-5 ovarian
OVCAR-8 ovarian = tested on: OVCAR-8 ovarian
RPMI-8226 leukemia = tested on: RPMI-8226 leukemia
RXF 393 renal = tested on: RXF 393 renal
SF-268 CNS = tested on: SF-268 CNS
SF-295 CNS = tested on: SF-295 CNS
SF-539 CNS = tested on: SF-539 CNS
SK-MEL-2 melanoma = tested on: SK-MEL-2 melanoma
SK-MEL-28 melanoma = tested on: SK-MEL-28 melanoma
SK-MEL-5 melanoma = tested on: SK-MEL-5 melanoma
SK-OV-3 ovarian = tested on: SK-OV-3 ovarian
SNB-19 CNS = tested on: SNB-19 CNS
SNB-75 CNS = tested on: SNB-75 CNS
SW-620 colon = tested on: SW-620 colon
T-47D breast = tested on: T-47D breast
TK-10 renal = tested on: TK-10 renal
UACC-257 melanoma = tested on: UACC-257 melanoma
UO-31 renal = tested on: UO-31 renal
786-0 renal = tested on: 786-0 renal
ACHN renal = tested on: ACHN renal
HCT-15 colon = tested on: HCT-15 colon
LOX IMVI melanoma = tested on: LOX IMVI melanoma
MALME-3M melanoma = tested on: MALME-3M melanoma
PC-3 prostate = tested on: PC-3 prostate
SN12C renal = tested on: SN12C renal
SR leukemia = tested on: SR leukemia
U251 CNS = tested on: U251 CNS
UACC-62 melanoma = tested on: UACC-62 melanoma

## CCCCCCCCCCCCCCC(=O)NC(CCCCNC(=O)C1CCCN1C(=O)C(CCCCN)NC(=O)C(CCCCN)NC(=O)C(CCCCN)NC(=O)C(CCCNC(=N)N)NC(=O)C(CCCCN)NC(=O)C(N)C(C)C)C(=O)CN1CCCC1C(=O)NCC(=O)NC(Cc1ccccc1)C(=O)N1CCCC1C(=O)NC(CO)C(=O)NC(Cc1ccc(O)cc1)C(=O)NC(CCCCN)C(=O)NC(CC(C)C)C(=O)NC(CCCNC(=N)N)C(=O)N1CCCC1C(=O)NCC(N)=O (centres undefined) (I: GFPSYKLRPG-NH2 / II: H-VKRKKKP; linker I:N-II:C via X23; configuration not given here)
A498 renal
  GI50: 40.5 µM
  TGI: > 100 µM
A549 NSCLC
  GI50: 19.2 µM
  TGI: 43.1 µM
BT-549 breast
  GI50: 23.4 µM
  TGI: 54.7 µM
CAKI-1 renal
  GI50: 14 µM
  TGI: 36.9 µM
CCRF-CEM leukemia
  GI50: 16.5 µM
  TGI: 35.1 µM
COLO 205 colon
  GI50: 2.66 µM
  TGI: 15.6 µM
DU-145 prostate
  GI50: 24.6 µM
  TGI: 64.2 µM
EKVX NSCLC
  GI50: 20.3 µM
  TGI: 58.7 µM
HCC-2998 colon
  GI50: 2.34 µM
  TGI: 8.59 µM
HCT-116 colon
  GI50: 14.3 µM
  TGI: 33.1 µM
HL-60(TB) leukemia
  GI50: 22.5 µM
  TGI: 94.8 µM
HOP-62 NSCLC
  GI50: 27.8 µM
  TGI: 69.5 µM
HOP-92 NSCLC
  GI50: 27 µM
  TGI: 65.1 µM
HS 578T breast
  GI50: 41.1 µM
  TGI: > 100 µM
HT29 colon
  GI50: 24.7 µM
  TGI: 77.8 µM
IGROV1 ovarian
  GI50: 14.8 µM
  TGI: 52.4 µM
K-562 leukemia
  GI50: 9.27 µM
  TGI: 44.4 µM
KM12 colon
  GI50: 1.89 µM
  TGI: 3.85 µM
M14 melanoma
  GI50: 22.8 µM
  TGI: 55.6 µM
MCF7 breast
  GI50: 15.4 µM
  TGI: 45.7 µM
MDA-MB-231 breast
  GI50: 20.9 µM
  TGI: 43.7 µM
MDA-MB-435
  GI50: 3.15 µM
  TGI: 41.6 µM
MOLT-4 leukemia
  GI50: 18.7 µM
  TGI: 44 µM
NCI-H226 lung
  GI50: 23.7 µM
  TGI: 49.7 µM
NCI-H23 lung
  GI50: 23.8 µM
  TGI: 92.8 µM
NCI-H460 lung
  GI50: 14.6 µM
  TGI: 49.9 µM
NCI-H522 lung
  GI50: 21.8 µM
  TGI: 66.3 µM
NCI/ADR-RES ovarian
  GI50: 19.6 µM
  TGI: 52.9 µM
OVCAR-3 ovarian
  GI50: 18.7 µM
  TGI: 94.6 µM
OVCAR-4 ovarian
  GI50: 28.7 µM
  TGI: 97.1 µM
OVCAR-5 ovarian
  GI50: 29.7 µM
  TGI: 74.9 µM
OVCAR-8 ovarian
  GI50: 26.3 µM
  TGI: 85.8 µM
RPMI-8226 leukemia
  GI50: 11 µM
  TGI: 30 µM
RXF 393 renal
  GI50: 20.7 µM
  TGI: 51.1 µM
SF-268 CNS
  GI50: 14.6 µM
  TGI: 40.8 µM
SF-295 CNS
  GI50: 18.1 µM
  TGI: 59.3 µM
SF-539 CNS
  GI50: 27.7 µM
  TGI: 75.1 µM
SK-MEL-2 melanoma
  GI50: 51.7 µM
  TGI: > 100 µM
SK-MEL-28 melanoma
  GI50: 11.3 µM
  TGI: 98.6 µM
SK-MEL-5 melanoma
  GI50: 8.01 µM
  TGI: > 100 µM
SK-OV-3 ovarian
  GI50: 15.9 µM
  TGI: 44.3 µM
SNB-19 CNS
  GI50: 31.4 µM
  TGI: 76.6 µM
SNB-75 CNS
  GI50: 31.5 µM
  TGI: 76.7 µM
SW-620 colon
  GI50: 30 µM
  TGI: > 100 µM
T-47D breast
  GI50: 3.17 µM
  TGI: 13.9 µM
TK-10 renal
  GI50: 0.704 µM
  TGI: 13.7 µM
UACC-257 melanoma
  GI50: 14 µM
  TGI: 53.8 µM
UO-31 renal
  GI50: 24.7 µM
  TGI: 77.1 µM

## Cc1ccc(NC(C(=O)c2ccccc2)c2ccccc2)cc1 (centres undefined)
786-0 renal
  GI50: 4.02 µM
  TGI: 15.6 µM
A498 renal
  GI50: 2.91 µM
  TGI: 15.5 µM
A549 NSCLC
  GI50: 4.08 µM
  TGI: > 100 µM
ACHN renal
  GI50: 7.94 µM
  TGI: > 100 µM
CAKI-1 renal
  GI50: 10.6 µM
  TGI: 39.7 µM
CCRF-CEM leukemia
  GI50: 3.98 µM
  TGI: 51.1 µM
COLO 205 colon
  GI50: 3.02 µM
  TGI: 13.7 µM
DU-145 prostate
  GI50: 3.18 µM
  TGI: 15.4 µM
EKVX NSCLC
  GI50: 1 µM
  TGI: 6 µM
HCC-2998 colon
  GI50: 4.52 µM
  TGI: > 100 µM
HCT-116 colon
  GI50: 2.04 µM
  TGI: 12.4 µM
HCT-15 colon
  GI50: 27.7 µM
  TGI: > 100 µM
HL-60(TB) leukemia
  GI50: 2.59 µM
  TGI: 6.57 µM
HOP-62 NSCLC
  GI50: 9.75 µM
  TGI: 39.1 µM
HOP-92 NSCLC
  GI50: 3.58 µM
  TGI: 8.95 µM
HS 578T breast
  GI50: 2.09 µM
  TGI: 7.79 µM
IGROV1 ovarian
  GI50: 2.11 µM
  TGI: 22.6 µM
K-562 leukemia
  GI50: 3.07 µM
  TGI: > 100 µM
KM12 colon
  GI50: 2.59 µM
  TGI: 13.4 µM
LOX IMVI melanoma
  GI50: 3.22 µM
  TGI: 39.4 µM
M14 melanoma
  GI50: 4 µM
  TGI: 33.4 µM
MALME-3M melanoma
  GI50: 2.42 µM
  TGI: 9.52 µM
MCF7 breast
  GI50: 3.79 µM
  TGI: 40.7 µM
MDA-MB-231 breast
  GI50: 13 µM
  TGI: > 100 µM
MDA-MB-435
  GI50: 2.63 µM
  TGI: 12.7 µM
MOLT-4 leukemia
  GI50: 4.71 µM
  TGI: > 100 µM
NCI-H226 lung
  GI50: 18 µM
  TGI: > 100 µM
NCI-H23 lung
  GI50: 3.5 µM
  TGI: > 100 µM
NCI-H460 lung
  GI50: 2.8 µM
  TGI: 11.8 µM
NCI/ADR-RES ovarian
  GI50: 18.8 µM
  TGI: > 100 µM
OVCAR-3 ovarian
  GI50: 3.31 µM
  TGI: 59.9 µM
OVCAR-4 ovarian
  GI50: 3.93 µM
  TGI: > 100 µM
OVCAR-5 ovarian
  GI50: 21.6 µM
  TGI: > 100 µM
OVCAR-8 ovarian
  GI50: 3.52 µM
  TGI: > 100 µM
PC-3 prostate
  GI50: 2.78 µM
  TGI: 52.4 µM
RPMI-8226 leukemia
  GI50: 2.71 µM
  TGI: 14.6 µM
RXF 393 renal
  GI50: 17.6 µM
  TGI: 46.3 µM
SF-268 CNS
  GI50: 3.1 µM
  TGI: 14.2 µM
SF-295 CNS
  GI50: 2.38 µM
  TGI: 8.71 µM
SF-539 CNS
  GI50: 13 µM
  TGI: > 100 µM
SK-MEL-28 melanoma
  GI50: 8.07 µM
  TGI: 37.3 µM
SK-MEL-5 melanoma
  GI50: 2.84 µM
  TGI: 14.5 µM
SK-OV-3 ovarian
  GI50: 15.8 µM
  TGI: 58.2 µM
SN12C renal
  GI50: 3.55 µM
  TGI: > 100 µM
SNB-19 CNS
  GI50: 4.26 µM
  TGI: > 100 µM
SNB-75 CNS
  GI50: 3.58 µM
  TGI: 20.3 µM
SR leukemia
  GI50: 4.26 µM
  TGI: 52.9 µM
SW-620 colon
  GI50: 3.47 µM
  TGI: > 100 µM
T-47D breast
  GI50: 2.02 µM
  TGI: 11.5 µM
U251 CNS
  GI50: 4.24 µM
  TGI: 25.1 µM
UACC-257 melanoma
  GI50: 2.8 µM
  TGI: 8.42 µM
UACC-62 melanoma
  GI50: 3.93 µM
  TGI: > 100 µM
UO-31 renal
  GI50: 13.8 µM
  TGI: 35.8 µM

## CCN(CC)CCNC(=O)c1cc(Cl)c(N)cc1OC
A498 renal
  GI50: 11.1 µM
  TGI: 40.1 µM
BT-549 breast
  GI50: 82.3 µM
HT29 colon
  GI50: 20.8 µM
  TGI: 38.7 µM
K-562 leukemia
  GI50: 56.5 µM
NCI-H460 lung
  GI50: 23.5 µM
  TGI: 45.8 µM
OVCAR-8 ovarian
  GI50: 28.4 µM
  TGI: 46.2 µM
SF-295 CNS
  GI50: 25.3 µM
  TGI: 44.2 µM
SK-MEL-5 melanoma
  GI50: 99.6 µM
SNB-75 CNS
  GI50: 50.2 µM
UACC-257 melanoma
  GI50: 13.9 µM
  TGI: 19.4 µM
UO-31 renal
  GI50: 99.1 µM
